Assay results published in patent US9771330B2, “Pyrimidine compounds for the treatment of cancer” (The University of North Carolina at Chapel Hill, priority 2012, dated 2017).

Biological target: T1, Mer (Homo sapiens, UniProt Q12866)
T1 sequence (Q12866 21-999): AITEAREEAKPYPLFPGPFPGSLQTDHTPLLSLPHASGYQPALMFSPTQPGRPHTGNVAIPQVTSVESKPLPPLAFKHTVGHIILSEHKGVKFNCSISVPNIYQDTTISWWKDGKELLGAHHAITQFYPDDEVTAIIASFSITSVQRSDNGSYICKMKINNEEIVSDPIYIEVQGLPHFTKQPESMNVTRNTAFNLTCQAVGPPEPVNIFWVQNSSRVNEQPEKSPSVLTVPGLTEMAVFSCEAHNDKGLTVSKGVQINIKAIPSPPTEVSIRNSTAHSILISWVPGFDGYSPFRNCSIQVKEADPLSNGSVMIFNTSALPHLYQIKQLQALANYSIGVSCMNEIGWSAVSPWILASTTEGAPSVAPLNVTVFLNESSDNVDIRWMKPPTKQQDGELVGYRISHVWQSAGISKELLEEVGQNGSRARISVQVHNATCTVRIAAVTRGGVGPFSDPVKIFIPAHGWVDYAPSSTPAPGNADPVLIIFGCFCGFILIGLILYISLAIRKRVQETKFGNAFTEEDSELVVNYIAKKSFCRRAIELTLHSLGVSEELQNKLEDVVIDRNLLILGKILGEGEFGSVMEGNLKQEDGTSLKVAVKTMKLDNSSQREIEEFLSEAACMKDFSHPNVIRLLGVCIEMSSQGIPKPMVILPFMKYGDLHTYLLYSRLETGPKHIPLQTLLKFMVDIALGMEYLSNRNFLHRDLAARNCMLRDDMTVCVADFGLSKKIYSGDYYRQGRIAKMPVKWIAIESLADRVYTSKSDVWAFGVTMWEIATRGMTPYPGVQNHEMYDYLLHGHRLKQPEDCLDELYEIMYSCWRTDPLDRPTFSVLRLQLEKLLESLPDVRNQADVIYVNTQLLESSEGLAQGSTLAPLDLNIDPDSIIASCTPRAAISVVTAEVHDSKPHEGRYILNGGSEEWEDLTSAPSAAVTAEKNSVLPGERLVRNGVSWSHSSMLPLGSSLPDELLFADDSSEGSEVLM
Experiment: Mer IC50
Assay type: biochemical
Settings: Table 2, compounds of General Procedure E

IC50: < 10 nM
Structure (SMILES): N[C@H]1CCCCNc2nc(ncc2C(=O)NCC2CCOCC2)NCCCCCCNC1=O [UNC2705A]
